Laboratory results from patent publication US7737151B2, “Pyrazine kinase inhibitors” (Vertex Pharmaceuticals Incorporated, priority 2005, dated 2010).

Legend:
Format in all cases: biochemical
Aurora-2 (Aurora A) = biological target: T1, Aurora-2 (Aurora A) (Homo sapiens, UniProt O14965); assay: Aurora-2 (Aurora A) Inhibition Assay, coupled enzyme assay; settings: 400 μM ATP, 570 μM Kemptide, 40 nM Aurora-2, 30° C.
T1 sequence (O14965 1-403): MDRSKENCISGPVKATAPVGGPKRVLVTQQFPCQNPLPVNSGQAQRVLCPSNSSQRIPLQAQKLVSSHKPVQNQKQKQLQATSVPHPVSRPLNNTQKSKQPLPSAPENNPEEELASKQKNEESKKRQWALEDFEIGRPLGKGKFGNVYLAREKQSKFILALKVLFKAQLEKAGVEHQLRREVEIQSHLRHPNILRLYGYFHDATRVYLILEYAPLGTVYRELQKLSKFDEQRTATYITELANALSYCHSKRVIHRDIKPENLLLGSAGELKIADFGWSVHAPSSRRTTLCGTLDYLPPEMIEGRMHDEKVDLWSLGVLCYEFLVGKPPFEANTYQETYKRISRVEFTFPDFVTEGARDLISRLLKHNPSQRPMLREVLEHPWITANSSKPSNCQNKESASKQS
Protocol: Compounds are screened for their ability to inhibit Aurora-2 using a standard coupled enzyme assay (Fox et al., Protein Sci., (1998) 7, 2249). Assays are carried out in a mixture of 100 mM Hepes (pH7.5), 100 mM MgCl2, 1 mM DTT, 25 mM NaCl, 2.5 mM phosphoenolpyruvate, 300 μM NADH, 30 μg/ml pyruvate kinase and 10 μg/ml lactate dehydrogenase. Final substrate concentrations in the assay are 400 μM ATP (Sigma Chemicals) and 570 μM peptide (Kemptide, American Peptide, Sunnyvale, Calif.). Assays are carried out at 30° C. and in the presence of 40 nM Aurora-2.
An assay stock buffer solution is prepared containing all of the reagents listed above, with the exception of Aurora-2 and the test compound of interest. 55 μl of the stock solution is placed in a 96 well plate followed by addition of 2 μl of DMSO stock containing serial dilutions of the test compound (typically starting from a final concentration of 7.5 μM). The plate is preincubated for 10 minutes at 30° C. and the reaction initiated by addition of 10 μl of Aurora-2. Initial reaction rates are determined with a Molecular Devices SpectraMax Plus plate reader over a 10 minute time course. IC50 and Ki data are calculated from non-linear regression analysis using the Prism software package (GraphPad Prism version 3.0cx for Macintosh, GraphPad Software, San Diego Calif., USA). Compounds I-1 and I-2 inhibit Aurora-2 at a Ki value of <0.1 uM.

FLT-3 = biological target: T2, FLT-3 (Homo sapiens, UniProt P36888); assay: FLT-3 Inhibition Assay, radiometric filter-binding; settings: 90 μM ATP, 0.5 mg/ml pE4Y, room temperature
T2 sequence (P36888 27-993): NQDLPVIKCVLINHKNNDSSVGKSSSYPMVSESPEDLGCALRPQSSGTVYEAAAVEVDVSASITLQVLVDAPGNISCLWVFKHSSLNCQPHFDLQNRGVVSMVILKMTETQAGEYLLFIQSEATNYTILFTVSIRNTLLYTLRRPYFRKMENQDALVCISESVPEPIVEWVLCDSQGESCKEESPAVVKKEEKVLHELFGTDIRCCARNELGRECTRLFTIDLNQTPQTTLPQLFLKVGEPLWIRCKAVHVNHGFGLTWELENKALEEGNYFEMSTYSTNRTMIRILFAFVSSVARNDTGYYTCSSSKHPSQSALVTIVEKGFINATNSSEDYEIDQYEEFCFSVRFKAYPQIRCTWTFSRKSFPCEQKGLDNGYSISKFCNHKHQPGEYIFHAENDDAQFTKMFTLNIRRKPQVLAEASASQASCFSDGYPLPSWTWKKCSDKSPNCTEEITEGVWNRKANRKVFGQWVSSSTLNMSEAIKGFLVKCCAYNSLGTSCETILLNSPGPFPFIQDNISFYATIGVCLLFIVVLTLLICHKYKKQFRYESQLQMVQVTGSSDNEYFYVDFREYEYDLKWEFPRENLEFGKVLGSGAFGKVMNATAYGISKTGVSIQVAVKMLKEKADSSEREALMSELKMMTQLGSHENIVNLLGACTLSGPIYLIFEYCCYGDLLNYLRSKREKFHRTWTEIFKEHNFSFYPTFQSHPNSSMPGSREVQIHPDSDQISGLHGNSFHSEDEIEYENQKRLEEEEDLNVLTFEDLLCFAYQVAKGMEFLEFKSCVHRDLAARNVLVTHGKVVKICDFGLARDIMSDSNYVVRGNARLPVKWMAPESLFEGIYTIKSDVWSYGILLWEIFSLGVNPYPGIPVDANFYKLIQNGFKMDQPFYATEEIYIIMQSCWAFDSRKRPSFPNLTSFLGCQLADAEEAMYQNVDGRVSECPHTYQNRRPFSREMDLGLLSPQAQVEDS
Protocol: Compounds are screened for their ability to inhibit FLT-3 activity using a radiometric filter-binding assay. This assay monitors the 33P incorporation into a substrate poly(Glu, Tyr) 4:1 (pE4Y). Reactions are carried out in a solution containing 100 mM HEPES (pH 7.5), 10 mM MgCl2, 25 mM NaCl, 1 mM DTT, 0.01% BSA and 2.5% DMSO. Final substrate concentrations in the assay are 90 μM ATP and 0.5 mg/ml pE4Y (both from Sigma Chemicals, St Louis, Mo.). The final concentration of a compound of the present invention is generally between 0.01 and 5 μM. Typically, a 12-point titration is conducted by preparing serial dilutions from 10 mM DMSO stock of test compound. Reactions are carried out at room temperature.
Two assay solutions are prepared. Solution 1 contains 100 mM HEPES (pH 7.5), 10 mM MgCl2, 25 mM NaCl, 1 mg/ml pE4Y and […] (containing 0.3 mCi of [γ-33^P]ATP for each reaction). Solution 2 contains 100 mM HEPES (pH 7.5), 10 mM MgCl2, 25 mM NaCl, 2 mM DTT, 0.02% BSA and 3 nM FLT-3. The assay is run on a 96 well plate by mixing 50 μl each of Solution 1 and […] of the compounds of the present invention. The reaction is initiated with Solution 2. […] The amount of ^33P incorporation into pE4y is analyzed by a Packard Top Count Microplate Scintillation Counter (Meriden, Conn.). […]

Aurora-1 (Aurora B) = Aurora-1 (Aurora B) (Homo sapiens, UniProt Q96GD4); assay: Aurora-1 (Aurora B) Inhibition Assay (Radiometric); settings: 800 μM ATP, Kemptide, 25° C.; read-out: Ki, Aurora-1 (Aurora B) radiometric assay (sentence prints Aurora-2)
Protocol: An assay buffer solution is prepared which consisted of 25 mM HEPES (pH 7.5), 10 mM MgCl2, 0.1% BSA and 10% glycerol. A 22 nM Aurora-B solution, also containing 1.7 mM DTT and 1.5 mM Kemptide (LRRASLG), is prepared in assay buffer. To 22 μL of the Aurora-B solution, in a 96-well plate, is added 2 μl of a compound stock solution in DMSO and the mixture allowed to equilibrate for 10 minutes at 25° C. The enzyme reaction is initiated by the addition of 16 μl stock [γ-^33P]-ATP solution (˜20 nCi/μL) prepared in assay buffer, to a final assay concentration of 800 μM. The reaction is stopped after 3 hours by the addition of 16 μL 500 mM phosphoric acid and the levels of ^33P incorporation into the peptide substrate are determined by the following method. […] Levels of non-enzyme catalysed background radioactivity are determined by adding 16 μL of the 500 mM phosphoric acid to control wells, containing all assay components (which acts to denature the enzyme), prior to the addition of the [γ-^33P]-ATP solution. Levels of enzyme catalysed ^33P incorporation are calculated by subtracting mean background counts from those measured at each inhibitor concentration. […] Ki values are calculated from initial rate data by non-linear regression using the Prism software package (Prism 3.0, Graphpad Software, San Diego, Calif.). […]

Sequence of Aurora-1 (Aurora B) (Q96GD4 whole entry): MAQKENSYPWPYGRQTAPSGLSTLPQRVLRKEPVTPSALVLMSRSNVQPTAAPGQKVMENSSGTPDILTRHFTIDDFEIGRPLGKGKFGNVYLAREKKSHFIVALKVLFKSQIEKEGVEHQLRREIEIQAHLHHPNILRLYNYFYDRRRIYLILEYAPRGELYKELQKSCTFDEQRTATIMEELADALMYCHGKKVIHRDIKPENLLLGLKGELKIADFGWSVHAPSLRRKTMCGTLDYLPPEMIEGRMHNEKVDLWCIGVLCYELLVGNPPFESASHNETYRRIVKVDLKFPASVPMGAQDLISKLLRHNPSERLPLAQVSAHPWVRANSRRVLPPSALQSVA

Cc1cnc(Nc2cncc(Sc3ccc(NC(=O)C4CC4)cc3)n2)s1 [Compound I-1, N-(4-(6-(5-methylthiazol-2ylamino)pyrazin-2-ylthio)phenyl)cyclopropanecarboxamide]
Ki (Aurora-2 (Aurora A)): < 100 nM | Ki (FLT-3): < 1000 nM

Cc1cc(Nc2cncc(Sc3ccc(NC(=O)C4CC4)cc3)n2)[nH]n1 [Compound I-2, N-(4-(6-(3-methyl-1H-pyrazol-5-ylamino)pyrazin-2-ylthio)phenyl)cyclopropanecarboxamide]
Ki (Aurora-2 (Aurora A)): < 100 nM | Ki (Aurora-1 (Aurora B)): < 1000 nM | Ki (FLT-3): < 1000 nM
